From patent publication US9018214B2, “Bicyclic heterocycle compounds and their uses in therapy” (Astex Therapeutics Limited, priority 2011, dated 2015)
Counter-ions that a name gives are not always drawn. Like-named read-outs stand apart in the source and are kept apart here.

Experiments:
[1] = system: EVSA-T (human breast carcinoma); test: Anti-proliferative activity, Alamar Blue assay, EVSA-T; assay type: cell-based; conditions: Homo sapiens
[2] = molecular target: BIR3 domain of human XIAP (residues 252-350) (Homo sapiens (Human), UniProt P98170); test: XIAP in vitro competitive displacement binding assay (fluorescence polarization); conditions: for IC50: read-out: IC50 or PI Xiap: IC50
[3] = molecular target: BIR3 domain of human cIAP-1 (residues 267-363) (Homo sapiens (Human), UniProt Q13490); test: cIAP-1 in vitro competitive displacement binding assay (fluorescence polarization; Probe A AVPIK(5&6FAM)-amide or Probe B AbuRPFK(5&6FAM)-amide)
[4] = EVSA-T, 72 hours, Alamar Blue, read-out: EVSA-T prolif (EC50)
[5] = EVSA-T, 72 h, read-out: EC50, inhibition of cell growth
[6] = EVSA-T, 72 h, read-out: EVSA-T prolif (EC50)
[7] = Probe A AVPIK(5&6FAM)-amide, read-out: IC50 or PI cIAP1: IC50
[8] = Probe B AbuRPFK(5&6FAM)-amide, read-out: IC50 or PI cIAP1: IC50
[9] = 3 h, Probe B, @ 0.012 μM, read-out: IC50 or PI cIAP1: PI
[10] = 3 h, read-out: IC50 or PI cIAP1: PI

`COC[C@H]1CN[C@H](C)CN1CC(=O)N1CC(C)(c2ccccc2)c2ccc(C#N)cc21` (mixture of isomers) [Example 136, 1-{2-[(2R,5R)-2-(Methoxymethyl)-5-methylpiperazin-1-yl]acetyl}-3-methyl-3-phenyl-2,3-dihydro-1H-indole-6-carbonitrile] was tested, and the EC50 [1, 4] was 2800 nM and the IC50 [2] was 110 nM.

In the case of `C[C@@H]1CN(CC(=O)N2CCc3ccc(Cc4ccccc4)cc32)CCN1` [Example 29, 1-(6-Benzyl-2,3-dihydro-indol-1-yl)-2-((R)-3-methyl-piperazin-1-yl)-ethanone hydrochloride salt], the EC50 [1, 5] is reported as < 10000 nM, the EC50 [1, 6] is reported as 4600 nM and the IC50 [3] is reported as < 10000 nM. It also gave an IC50 [3, 7] of 1400 nM.

With `C[C@@H]1CN(CC(=O)N2CCc3cnc(Cc4ccccc4)cc32)CCN1` [Example 35, 1-(6-Benzyl-2,3-dihydro-pyrrolo[3,2-c]pyridin-1-yl)-2-((R)-3-methyl-piperazin-1-yl)-ethanone hydrochloride salt] the inhibition at 10 µM ([1]; EVSA-T, read-out: EVSA-T prolif: % inhibition) was 28%, the IC50 [3] was < 1000 nM and the IC50 [3, 7] was 960 nM.

Compound `COC[C@H]1CN[C@H](C)CN1CC(=O)N1CC(C)(C)c2cnc(Cc3cccc(C#N)c3)cc21` [Example 80, 3-[(1-{2-[(2R,5R)-2-(Methoxymethyl)-5-methylpiperazin-1-yl]acetyl}-3,3-dimethyl-1H,2H,3H-pyrrolo[3,2-c]pyridin-6-yl)methyl]benzonitrile hydrochloride salt] has an EC50 [1, 6] of 780 nM and an IC50 [3, 8] of 33 nM.

Work on `COC[C@H]1CN[C@H](C)CN1CC(=O)N1CC(C)(C)c2cnc(Cc3cccc(OC)c3)cc21` [Example 89, 2-[(2R,5R)-2-(Methoxymethyl)-5-methylpiperazin-1-yl]-1-{6-[(3-methoxyphenyl)methyl]-3,3-dimethyl-1H,2H,3H-pyrrolo[3,2-c]pyridin-1-yl}ethan-1-one, hydrochloride salt] yielded an EC50 [1, 6] of 990 nM and an IC50 [3, 8] of 16 nM.

Work on `C[C@@H]1CN(CC(=O)N2CC(C)(C)c3cnc(Cc4ccccc4)cc32)[C@@H](C(=O)N(C)C)CN1` [Example 99, (2R,5R)-1-(2-{6-Benzyl-3,3-dimethyl-1H,2H,3H-pyrrolo[3,2-c]pyridin-1-yl}-2-oxoethyl)-N,N,5-trimethylpiperazine-2-carboxamide, hydrochloride salt] yielded an EC50 [1, 6] of 180 nM and an IC50 [3, 8] of 12 nM.

Work on `C[C@@H]1CN(CC(=O)N2CC(C)(COCc3ccccc3)c3cnc(Cc4ccccc4)cc32)[C@@H](C(=O)N(C)C)CN1` (stereo partly drawn) [Example 104, (2R,5R)-1-(2-{6-Benzyl-3-[(benzyloxy)methyl]-3-methyl-1H,2H,3H-pyrrolo[3,2-c]pyridin-1-yl}-2-oxoethyl)-N,N,5-trimethylpiperazine-2-carboxamide, hydrochloride salt] yielded an EC50 [1, 6] of 490 nM and an inhibition at 0.01 µM ([3]; 3 h, Probe B, @ 0.01 μM, read-out: IC50 or PI cIAP1: PI) of 71%.

With `COC[C@H]1CN[C@H](C)CN1CC(=O)N1C[C@](C)(c2ccccc2)c2ccc(C#N)cc21` [Example 140, (3R)-1-{2-[(2R,5R)-2-(Methoxymethyl)-5-methylpiperazin-1-yl]acetyl}-3-methyl-3-phenyl-2,3-dihydro-1H-indole-6-carbonitrile] the EC50 ([1]; EVSA-T cell line, 72 hours, Alamar Blue, read-out: EC50, inhibition of cell growth) was < 10000 nM, the EC50 [1, 4] was 8600 nM and the IC50 [2] was 94 nM.

With `COC[C@H]1CN[C@H](C)CN1CC(=O)N1CC(C)(C)c2cc(-c3nc(C)no3)c(Cl)cc21` [Example 141, 1-[6-Chloro-3,3-dimethyl-5-(3-methyl-1,2,4-oxadiazol-5-yl)-2,3-dihydro-1H-indol-1-yl]-2-[(2R,5R)-2-(methoxymethyl)-5-methylpiperazin-1-yl]ethan-1-one] the EC50 [1, 5] was < 10000 nM, the EC50 [1, 6] was 9000 nM and the IC50 [3, 8] was 280 nM.

`Cc1cnn(C[C@H]2CN[C@H](C)CN2CC(=O)N2CC(C)(C)c3cnc(Cc4ccccc4)cc32)c1` [Example 147, 1-{6-Benzyl-3,3-dimethyl-1H,2H,3H-pyrrolo[3,2-c]pyridin-1-yl}-2-[(2R,5R)-5-methyl-2-[(4-methyl-1H-pyrazol-1-yl)methyl]piperazin-1-yl]ethan-1-one hydrochloride] was tested, and the EC50 [1, 6] was 110 nM and the inhibition at 0.04 µM ([2]; 1 h, @ 0.04 μM, read-out: IC50 or PI Xiap: PI) was 49%.

In the case of `C[C@@H]1CN(CC(=O)N2CC(C)(C)c3cnc(Cc4ccc(F)cc4F)cc32)[C@@H](CN2CCCC2=O)CN1` [Example 179, 1-{[(2R,5R)-1-(2-{6-[(2,4-Difluorophenyl)methyl]-3,3-dimethyl-1H,2H,3H-pyrrolo[3,2-c]pyridin-1-yl}-2-oxoethyl)-5-methylpiperazin-2-yl]methyl}pyrrolidin-2-one hydrochloride], the EC50 [1, 6] is reported as 4.4 nM and the inhibition at […] [3, 9] is reported as 97%.

`C[C@@H]1CN(CC(=O)N2CC(C)(C)c3cnc(C(C)(F)F)cc32)[C@@H](CN2CCCC2=O)CN1` [Example 184, dihydrochloride] was tested, and the EC50 [1, 6] was 650 nM, the IC50 [3] was < 1000 nM and the IC50 [3, 8] was 31 nM.

In the case of `CCC(F)(F)c1cnc2c(c1)N(C(=O)CN1C[C@@H](C)NC[C@@H]1CN1CCCC1=O)CC2(C)C` [Example 190, 1-{[(2R,5R)-1-{2-[6-(1,1-Difluoropropyl)-3,3-dimethyl-1H,2H,3H-pyrrolo[3,2-b]pyridin-1-yl]-2-oxoethyl}-5-methylpiperazin-2-yl]methyl}pyrrolidin-2-one hydrochloride], the EC50 [1, 6] is reported as 400 nM and the IC50 ([3]; read-out: IC50 or PI cIAP1: IC50) is reported as 29 nM.

Work on `C[C@@H]1CN(CC(=O)N2CC(C)(C)c3ncc(Cc4ccc(F)cc4F)cc32)[C@@H](CN2CCCC2=O)CN1` [Example 199, 1-{[(2R,5R)-1-(2-{6-[(2,4-Difluorophenyl)methyl]-3,3-dimethyl-1H,2H,3H-pyrrolo[3,2-b]pyridin-1-yl}-2-oxoethyl)-5-methylpiperazin-2-yl]methyl}pyrrolidin-2-one dihydrochloride] yielded an EC50 [1, 6] of 5.6 nM and an IC50 [2] of 63 nM.

`CC(C)CC(F)(F)c1cnc2c(c1)N(C(=O)CN1C[C@@H](C)NC[C@@H]1CN1CCCC1=O)CC2(C)C` [Example 216, 1-{[(2R,5R)-1-{2-[6-(1,1-Difluoro-3-methylbutyl)-3,3-dimethyl-1H,2H,3H-pyrrolo[3,2-b]pyridin-1-yl]-2-oxoethyl}-5-methylpiperazin-2-yl]methyl}pyrrolidin-2-one dihydrochloride] was tested, and the EC50 [1, 6] was 51 nM and the inhibition at […] [3, 10] was 68%.

In the case of `CCCC(F)(F)c1cnc2c(c1)N(C(=O)CN1C[C@@H](C)NC[C@@H]1CN1CCCC1=O)CC2(C)C` [Example 217, 1-{[(2R,5R)-1-{2-[6-(1,1-Difluorobutyl)-3,3-dimethyl-1H,2H,3H-pyrrolo[3,2-b]pyridin-1-yl]-2-oxoethyl}-5-methylpiperazin-2-yl]methyl}pyrrolidin-2-one hydrochloride], the EC50 [1, 6] is reported as 50 nM.

Compound `C[C@@H]1CN(CC(=O)N2CC(C)(C)c3cnc(Cc4ccc(F)cc4F)cc32)[C@@H](CN2CCCC2)CN1` [Example 220, 1-{6-[(2,4-Difluorophenyl)methyl]-3,3-dimethyl-1H,2H,3H-pyrrolo[3,2-c]pyridin-1-yl}-2-[(2R,5R)-5-methyl-2-(pyrrolidin-1-ylmethyl)piperazin-1-yl]ethan-1-one dihydrochloride] has an EC50 [1, 6] of 49 nM.

Work on `C[C@@H]1CN(CC(=O)N2CC(C)(C)c3ncc(Cc4ccc(F)cc4)cc32)[C@@H](CN2CCOCC2)CN1` [Example 234, 1-{6-[(4-Fluorophenyl)methyl]-3,3-dimethyl-1H,2H,3H-pyrrolo[3,2-b]pyridin-1-yl}-2-[(2R,5R)-5-methyl-2-(morpholin-4-ylmethyl)piperazin-1-yl]ethan-1-one dihydrochloride] yielded an EC50 [1, 6] of 9.6 nM and an IC50 [2] of 74 nM.

For `CC(C)CC(F)(F)c1cnc2c(c1)N(C(=O)CN1C[C@@H](C)NC[C@@H]1CN1CCOCC1)CC2(C)C` [Example 235, 1-[6-(1,1-Difluoro-3-methylbutyl)-3,3-dimethyl-1H,2H,3H-pyrrolo[3,2-b]pyridin-1-yl]-2-[(2R,5R)-5-methyl-2-(morpholin-4-ylmethyl)piperazin-1-yl]ethan-1-one], the EC50 [1, 6] was 31 nM.

Compound `CCCC(F)(F)c1cnc2c(c1)N(C(=O)CN1C[C@@H](C)NC[C@@H]1CN1CCOCC1)CC2(C)C` [Example 238, 1-[6-(1,1-Difluorobutyl)-3,3-dimethyl-1H,2H,3H-pyrrolo[3,2-b]pyridin-1-yl]-2-[(2R,5R)-5-methyl-2-(morpholin-4-ylmethyl)piperazin-1-yl]ethan-1-one hydrochloride] has an EC50 [1, 6] of 68 nM and an inhibition at […] [3, 9] of 69%.

For `C[C@@H]1CN(CC(=O)N2CC(C)(C)c3ncc(Cc4ccc(F)cc4)cc32)[C@@H](CN2CC[C@@H](F)C2)CN1` [Example 241, 1-{6-[(4-Fluorophenyl)methyl]-3,3-dimethyl-1H,2H,3H-pyrrolo[3,2-b]pyridin-1-yl}-2-[(2R,5R)-2-{[(3R)-3-fluoropyrrolidin-1-yl]methyl}-5-methylpiperazin-1-yl]ethan-1-one dihydrochloride], the EC50 [1, 6] was 7.2 nM and the inhibition at […] [3, 10] was 98%.

`C[C@@H]1CN(CC(=O)N2CC(C)(C)c3ncc(Cc4ccccc4F)cc32)[C@@H](CN2CC[C@@H](F)C2)CN1` [Example 250, 1-{6-[(2-Fluorophenyl)methyl]-3,3-dimethyl-1H,2H,3H-pyrrolo[3,2-b]pyridin-1-yl}-2-[(2R,5R)-2-{[(3R)-3-fluoropyrrolidin-1-yl]methyl}-5-methylpiperazin-1-yl]ethan-1-one dihydrochloride] was tested, and the EC50 [1, 6] was 16 nM and the inhibition at […] [3, 10] was 89%.
